{"source": "paper PMC10309190", "about": "“A PI(3,5)P2 reporter reveals PIKfyve activity and dynamics on macropinosomes and phagosomes” (The Journal of Cell Biology, 2023)", "key": {"[1]": {"biological_target": "T1, SnxA (full-length SnxA-GFP; DDB_G0289833) (Dictyostelium discoideum, UniProt Q54GY1)", "T1 construct": "full length (PX domain plus coiled coil); N-terminal 6xHis and eGFP kept; E. coli BL21; mostly dimer, apparent 181 kD by mass photometry", "T1 sequence (Q54GY1 1-186)": "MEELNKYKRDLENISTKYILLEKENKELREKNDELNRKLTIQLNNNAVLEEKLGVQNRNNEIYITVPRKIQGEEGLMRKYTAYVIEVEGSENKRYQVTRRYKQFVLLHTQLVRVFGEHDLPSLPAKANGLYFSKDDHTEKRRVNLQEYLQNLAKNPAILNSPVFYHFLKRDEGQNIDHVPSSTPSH", "assay": "microscopy of GFP recruitment to membrane-coated beads, probe titration", "assay_type": "binding", "settings": "5 mol% phosphoinositide in 95 mol% POPC bilayers on silica beads; 150 mM NaCl, 20 mM Hepes, 0.5 mM TCEP, room temperature; acyl chains not given; avidity of dimer; read-out: apparent Kd"}, "[2]": {"biological_target": "T2, 2xPX (2xPX-GFP, tandem repeat of the SnxA PX domain) (Dictyostelium discoideum, UniProt Q54GY1)", "T2 construct": "gene DDB_G0289833; N-terminal 6xHis and eGFP kept; E. coli BL21; single population, apparent 104 kD by mass photometry", "assay": "microscopy of GFP recruitment to membrane-coated beads, probe titration", "assay_type": "binding", "settings": "5 mol% phosphoinositide in 95 mol% POPC bilayers on silica beads; 150 mM NaCl, 20 mM Hepes, 0.5 mM TCEP, room temperature; acyl chains not given; avidity of tandem domains; read-out: apparent Kd"}, "[3]": {"biological_target": "full-length SnxA, recombinant N-terminal 6xHis and eGFP fusion (Dictyostelium discoideum)", "assay": "mass photometry; recombinant GFP fusions diluted to 25-50 nM in 250 mM NaCl, 20 mM Hepes, 0.5 M TCEP (so in the source) immediately before measurement; OneMP mass photometer; monomer to dimer"}}, "data": [{"substance": "PI(3,5)P2", "values": [{"measurement": "Kd", "setting": "[1]", "result": "187 ± 13", "unit": "nM"}, {"measurement": "Kd", "setting": "[2]", "result": "218 ± 7", "unit": "nM"}]}, {"substance": "full-length SnxA, recombinant N-terminal 6xHis and eGFP fusion (natural protein)", "values": [{"measurement": "percent of the protein at the dimer's apparent mass", "setting": "[3]", "result": 85, "unit": "%"}, {"measurement": "stoichiometry N", "setting": "[3]", "result": 2}]}]}
